The results in this text go back to patent EP4792811A1, “S1PR4 REGULATOR COMPOUND FOR MUSCLE DISEASE TREATMENT AND APPLICATION THEREOF” (Shengyuan Zetong (Shanghai) Pharmaceutical Co., Ltd, priority 2023, dated 2025).

Residue numbers refer to the chain shown, from its start. Entries after “also recorded” stand apart in the source; their conditions may differ.

One assay concerns the target T1, hS1P1 (Homo sapiens, UniProt P21453).
T1 construct: expressed in transfected cells; host or cells: CHO-K1
Description: Tango β-arrestin recruitment assay, Tango-hS1P1-CHO. The class given is cell-based. The settings on record: final concentration 45 µM, 9 serial dilutions at 5-fold intervals; 20 h drug treatment; luciferase readout. The source says:
(§1) The Tango assay detects ligand-dependent GPCR activity through the interaction between β-arrestin and GPCRs. […] The NTEV fragment and the tetracycline transactivator (tTA), an artificial transcription factor, are fused at the C-terminus of the GPCR, while the CTEV fragment is fused to human β-arrestin 2. To enhance the stability of the interaction between GPCR and β-arrestin, a short sequence from the C-terminus of the human arginine vasopressin receptor 2 (V2 tail) is inserted between the GPCR and NTEV. The V2 tail contains multiple GRK phosphorylation sites, which strengthen β-arrestin binding upon phosphorylation. The CTEV fragment carries the stabile point mutation S219P and is truncated at residue 221 to remove the autoinhibitory C-terminal tail. Meanwhile, β-arrestin 2 is truncated to lack the entire C-terminal tail (residues 383-410 deleted). This truncation confers robust stimulus-dependent receptor desensitization, thereby improving detection sensitivity compared with wild-type β-arrestin 2. The UAS reporter construct consists of upstream activating sequence (UAS) elements, a minimal CMV promoter, and a tTA-dependent luciferase reporter gene. Therefore, constructing Tango cells requires the co-transfection of the above three plasmids into host cells. Upon GPCR activation and β-arrestin recruitment, the TEV enzyme at the β-arrestin terminus cleaves tTA from the GPCR C-terminus. The released tTA initiates tTA-dependent luciferase transcription, and compound activity is ultimately determined by measuring luminescence intensity.
(§2) • 1) Tango cell line from was digested from the culture dish respectively. After cell counting, the cells were plated at a density of 10,000 cells per well with […] into a white opaque 96-well plate (add 60 µL D'Hanks to the surrounding wells), and incubated overnight (20 h) in a 5% CO2 incubator at 37°C. The cell density will reach approximately 90% the next day. • 2) After 20 h, 30 µL of serially diluted compound solution was added to each well. The control group was supplemented with 30 µL F12K complete medium. Each group had three replicate wells. • 3) Samples were collected after 20 h of drug treatment.
(§3) (All compounds were tested at a final concentration of 45 µM, with 9 serial dilutions at 5-fold intervals. 1 µM BAF-312 was used as the positive control for S1PR1, and 25 µM BAF-312 was used as the positive control for S1PR4.)
(§4) ^a β-arrestin recruitment activity based on Tango-S1PR1-CHO-K1 and Tango-S1PR4-CHO-K1 cells, expressed as mean EC50 values ± SD. ^b FLIPR assays were performed using S1PR2-CHO and S1PR5-CHO cell lines, expressed as mean EC50 values ± SD. ^c β-arrestin recruitment activity based on PathHunter CHO-K1-S1PR3 cells, expressed as mean EC50 values ± SD. Data are the mean of at least two independent determinations, reported as mean ± SD (standard deviation).
(Activated receptors often draw arrestin, which recruitment assays turn into a signal.)

The target in a further assay is T2, hS1P4 (Homo sapiens, UniProt O95977).
T2 construct: expressed in transfected cells; host or cells: CHO-K1
T2 sequence (O95977 1-384): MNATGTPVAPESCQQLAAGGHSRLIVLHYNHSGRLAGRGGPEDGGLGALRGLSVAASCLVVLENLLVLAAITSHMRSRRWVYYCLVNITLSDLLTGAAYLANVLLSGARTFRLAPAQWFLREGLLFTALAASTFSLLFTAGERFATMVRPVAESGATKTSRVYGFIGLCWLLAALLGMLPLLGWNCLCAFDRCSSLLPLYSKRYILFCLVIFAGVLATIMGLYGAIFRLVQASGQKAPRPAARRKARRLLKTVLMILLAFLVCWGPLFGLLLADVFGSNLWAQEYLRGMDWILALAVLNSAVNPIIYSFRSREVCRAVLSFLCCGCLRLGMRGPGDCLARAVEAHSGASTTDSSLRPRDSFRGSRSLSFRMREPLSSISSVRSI
The assay is described as follows: Tango β-arrestin recruitment assay, Tango-hS1P4-CHO. It is filed as cell-based. The settings on record: final concentration 45 µM, 9 serial dilutions at 5-fold intervals; 20 h drug treatment; luciferase readout.
Source text: as §1, §2, §3, §4

The target of another assay is T3, hS1P4-R-79C (Homo sapiens, UniProt O95977, R79C).
T3 construct: expressed in transfected cells; host or cells: CHO
T3 sequence (O95977 1-384 R79C): T2 sequence (O95977 1-384) with R79C
The assay is described as follows: Tango β-arrestin recruitment assay, Tango-hS1P4-R-79C-CHO. To be noted: final concentration 45 µM, 9 serial dilutions at 5-fold intervals; 20 h drug treatment; luciferase readout. The class given is cell-based.
Source text: as §1, §2, §3

Assay [1] relates to Duchenne muscular dystrophy model mice. Description: In vivo efficacy in Duchenne muscular dystrophy mdx mice (Compound 67). To be noted: for rotarod time: Day 42; for rotarod time / grip strength: compared with the model group; for grip strength: after 42 days of treatment. The protocol: Experimental animals: A total of 18 Duchenne muscular dystrophy model mice were divided into 3 groups with 6 mice in each group.
Intragastric administration was initiated on Day 0. Body weight was measured daily during the period to adjust the drug dosage. Grip strength and rotarod tests were performed on Day 20 and Day 42. Changes in the limb grip strength, exercise duration, and muscle fibrosis/inflammation in mice were detected as indicators for evaluating drug efficacy.
The mouse was placed horizontally on the grip test board. The mouse's tail was held and pulled gently in the opposite direction without using excessive force. The tail was gradually pulled until the mouse released the grip force sensor. The maximum value recorded by the grip force sensor is the grip strength. The test was repeated for 3 times and the average value was taken.
The rotarod test was conducted on Day 0, Day 20, and Day 42 respectively. The test was performed at an accelerating speed (0-16 rpm), reaching the maximum speed after 300 seconds, with a maximum test duration of 600 seconds. The time until the animal fell off was recorded^7.
After the experiment, the tibialis anterior, extensor digitorum longus, and diaphragm of the mice were harvested, fixed, sectioned, and subjected to HE staining and Sirius Red staining to observe the degree of muscle fibrosis.
(The rotarod test checks motor coordination on a turning rod.)

The test system of the next assay is LPS-induced sepsis model. The assay is described as follows: LPS-induced sepsis myopathy (skeletal muscle atrophy) model. It is filed as in vivo, mice. The settings on record: 14 days of LPS treatment. An excerpt: Animal models of sepsis can be established by injecting exogenous toxins into animals. In this study, a sepsis model was established via intraperitoneal injection of lipopolysaccharide to observe the effects of compounds on the occurrence and development of acquired weakness. This is a widely used method for modeling sepsis.
A skeletal muscle atrophy model induced by lipopolysaccharide can simulate clinical muscle atrophy caused by sepsis.
Mice were given a single intraperitoneal injection of LPS (1 mg/kg), followed by 14 consecutive days of intraperitoneal injection of either vehicle (1% DMSO dissolved in physiological saline) or Compound 30. Body weight was measured daily. After 14 days of LPS treatment, the mice were anesthetized, and the gastrocnemius and tibialis anterior muscles were harvested.

A further assay deals with T4, S1PR4 (Homo sapiens, UniProt O95977).
T4 construct: expressed in transfected cells; host or cells: 293T
T4 sequence (O95977 1-384): T2 sequence (O95977 1-384)
Description: S1PR4 internalization function test in S1PR4-293T cells. The class given is cell-based. The settings on record: 1 µM, 37 °C, 1.5 hours; detected immediately, or at 5 hours or 20 hours after treatment. Here is the method: Therefore, the recovery degree of S1PR4 after internalization caused by Compound 30 was evaluated, and the recovery effect following receptor internalization caused by Compound 30 was assessed in cells with high S1PR4 expression.

Setting [2] is: 20 mg/kg intragastric once daily.
The mark [3] stands for this setting: 3 mg/kg intragastric once daily.

In general, EC50 refers to the concentration that produces a half-maximal response. Higher therefore signals a less potent agent.

T1 sequence (P21453 whole entry): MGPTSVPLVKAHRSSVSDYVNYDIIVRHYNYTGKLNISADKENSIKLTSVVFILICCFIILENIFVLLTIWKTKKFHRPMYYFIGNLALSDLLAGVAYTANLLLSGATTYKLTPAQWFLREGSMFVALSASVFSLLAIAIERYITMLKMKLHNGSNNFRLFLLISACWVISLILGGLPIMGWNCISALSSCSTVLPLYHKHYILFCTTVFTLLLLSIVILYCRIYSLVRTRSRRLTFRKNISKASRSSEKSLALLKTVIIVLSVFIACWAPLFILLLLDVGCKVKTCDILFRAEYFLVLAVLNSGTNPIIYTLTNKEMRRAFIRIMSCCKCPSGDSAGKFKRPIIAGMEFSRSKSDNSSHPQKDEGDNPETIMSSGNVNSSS

In the case of `C/C(=N\OCc1ccc(C2CCCCC2)c(C(F)(F)F)c1)c1ccc(CN2CC(C(=O)O)C2)c(C(F)(F)F)c1` [Compound 19], the 50% effective concentration (EC50) was found to be 8.63 ± 0.39 nM on hS1P1, 564 ± 184 nM at hS1P4 and 121 ± 30.4 nM at hS1P4-R-79C.

Turning to `CCc1cc(/C(C)=N/OCc2ccc(C3CCCC3)c(C(F)(F)F)c2)ccc1CN1CC(C(=O)O)C1` [Compound 17], the EC50 at hS1P1 was 2.21 ± 0.58 nM; at hS1P4-R-79C, 95.6 ± 42.1 nM.

For the molecule `C/C(=N\OCc1ccc(C2CCCCC2)c(C(F)(F)F)c1)c1ccc(CN2CC(C(=O)O)C2)c(C)c1` [Compound 18], the EC50 was 2.95 ± 0.69 nM on hS1P1, 266 ± 62.8 nM at hS1P4 and 63.1 ± 21.8 nM on hS1P4-R-79C.

As for `CCc1cc(/C(C)=N/OCc2ccc(-c3ccccc3)c(C)c2)ccc1CNCCCC(=O)O` [Compound 32, (E)-4-((2-ethyl-4-(1-((2-methyl-[1,1'-biphenyl]-4-yl)methoxy)imino)ethyl)benzyl)aminobutyric acid], it took 110 ± 6.85 nM to reach a half-maximal effect at hS1P4-R-79C (EC50).

On to `C/C(=N\OCc1ccc(C2CCCCC2)c(C(F)(F)F)c1)c1ccc(CNCCC(=O)O)cc1` [Compound 10, (E)-3-((4-((1-((4-cyclohexyl-3-(trifluoromethyl)benzyl)oxy)imino)ethyl)benzyl)amino)propanoic acid], for which the values for the EC50 at hS1P4 and at hS1P4-R-79C were 262 ± 37.3 nM and 160 ± 4.9 nM, respectively.

`C[C@@H]1C[C@H]2[C@@H]3CCC4=CC(=O)C=C[C@]4(C)C3=CC[C@]2(C)[C@@]1(O)C(=O)CO` [Vamorolone, reference compound]: in assay [1] (setting [2]), the “collagen deposition (collagen area ratio)” value is “significantly reduced collagen deposition”; the “macrophage levels (F4/80 macrophage marker, muscle inflammation)” value is listed as “significantly reduced macrophage levels”; the “number of centrally nucleated fibers (HE staining)” value is “significantly reduced”; the “serum creatine kinase level” value was “significantly reduced the creatine kinase level”. For the same molecule, in assay [1] (setting [2]), the rotarod time result is “increased” and the grip strength entry is “increased significantly; also recorded: marked increase; also recorded: significantly elevated”.

For `CCc1cc(/C(C)=N/OCc2ccc(-c3cnc(F)cn3)c(C)c2)ccc1CN1CC[C@H](C(=O)O)C1` [Compound 67, (S, E)-1-(2-ethyl-4-(1-(((4-(5-fluoropyrazin-2-yl)-3-methylbenzyl)oxy)imino)ethyl)benzyl)pyrrolidine-3-carboxylic acid], the “atrophy of the tibialis anterior muscle” value in the assay on LPS-induced sepsis model (high dose (Compound 30: 10mg/kg intraperitoneal once daily)) is on record as “significantly inhibited”. For the same molecule, the “atrophy of the tibialis anterior muscle” value in the assay on LPS-induced sepsis model (medium dose (Compound 30: 1mg/kg intraperitoneal once daily)) is reported as “significantly inhibited”. In assay [1] (setting [3]), the “collagen deposition (collagen area ratio)” value was “significantly reduced collagen deposition”; the “macrophage levels (F4/80 macrophage marker, muscle inflammation)” value is given as “significantly reduced macrophage levels”; the “number of centrally nucleated fibers (HE staining)” value was “significantly reduced”; the “serum creatine kinase level” value is “significantly reduced the creatine kinase level”. In assay [1] (setting [3]), the rotarod time result is recorded as “increased” and the grip strength result was “marked increase; also recorded: significantly elevated”. Besides, in assay [1] (3 mg/kg intragastric once daily, listed as compound 67), the grip strength result was “increased significantly”. In addition, the “S1PR4 internalization (expression of S1PR4 receptor on the cell surface)” value at S1PR4 is on record as “sustained internalization capacity”.

For `CCCCCCCCCCCCC/C=C/[C@@H](O)[C@@H](N)COP(=O)(O)O` [Compound S1P, sphingosine 1-phosphate, reference compound], the “S1PR4 internalization (expression of S1PR4 receptor on the cell surface)” value on S1PR4 is reported as “can induce S1PR4 internalization”.
